# Source: paper PMC11310081, “Deep-learning-enabled antibiotic discovery through molecular de-extinction” (Nature Biomedical Engineering, 2024)
# “Also recorded” adds a separate entry of the source. Peptide text beside a SMILES is read from it.
# What was measured:
# A. baumannii ATCC 19606 [1] = assay: Neutropenic thigh infection mouse model; format: in vivo, CD-1 mice; conditions: neutropenic CD-1 mice
# Description: Six-week-old female CD-1 mice from Charles River (stock number 18679700-022) were rendered neutropenic by two doses of cyclophosphamide (150 mg kg^−1) applied intraperitoneally with an interval of 72 h. One day after the last dose of cyclophosphamide, the mice were injected intramuscularly in their right thigh with a bacterial load of 10^6 c.f.u. ml^−1 of A. baumannii ATCC 19606 cells. The bacteria had been grown in LB broth, washed twice with PBS (pH 7.4), and resuspended to the desired concentration. Two hours after bacterial injection, peptides resuspended in water were administered intraperitoneally, and the untreated mice were inoculated with the same volume of deionized water. Before each injection, mice were anaesthetized with isoflurane and monitored for respiratory rate and pedal reflexes. Next, we monitored the establishment of the infection and euthanized the mice. The infected area was excised 2 days and 4 days post infection, homogenized using a bead beater for 20 min (25 Hz), and then serially diluted tenfold for quantification of colony-forming units in MacConkey agar plates. The experiments were performed with six mice per group. All experiments were performed blindly, and no animal subjects were excluded from the analysis. The thigh infection mouse model was approved by the University Laboratory Animal Resources from the University of Pennsylvania (protocol 807055). Statistical significance was determined using one-way ANOVA followed by Dunnett’s test in log10-transformed data to mitigate the effect of outliers; P values are presented for each group, with all groups being compared to the untreated control group.
# [2] = test system: 11 clinically relevant bacterial pathogens; format: cell-based; conditions: for Active or Inactive: Supplementary Dataset 2, against the 11 pathogens tested; for MIC (lowest MIC value in the antimicrobial activity assays): Supplementary Table 17, lowest MIC among the strains tested
# How it was run: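 Antimicrobial activity is measured by broth microdilution against log-phase bacteria (OD600 0.3–0.5). Peptide range: 1 to 64 μmol l^−1.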
# A. baumannii ATCC 19606 [3] = assay: Skin abscess infection mouse model; format: in vivo, CD-1 mice; conditions: for bacterial count, skin abscess (Panel 6b): CD-1 mice; for Anti-infective activity in skin abscess model, in words: single dose at MIC, compared with untreated control and polymyxin B, n = 6
# Description: A. baumannii ATCC 19606 cells were grown in LB medium to an OD600 = 0.5. Cells were washed twice with sterile phosphate-buffered saline (PBS) (pH 7.4, 13,000 r.p.m. for 2 min) and resuspended to a final concentration of 10^6 (A. baumannii cells) colony-forming units per millilitre (c.f.u. ml^−1). Six-week-old female CD-1 mice from Charles River (stock number 18679700-022) were anaesthetized with isoflurane, and their backs were sterilized and shaved. A superficial linear skin abrasion was made with a needle to damage the stratum corneum and upper layer of the epidermis. An aliquot of 20 μl containing the bacterial load resuspended in PBS was inoculated over the scratched area. Two hours after the infection, peptides diluted in water at their MIC value were administered to the infected area, and the untreated mice were inoculated with the same volume of deionized water. Mice were euthanized, and the area of scarified skin was excised 2 days and 4 days post infection, homogenized using a bead beater for 20 min (25 Hz) and then serially diluted tenfold for quantification of colony-forming units. This quantitative method was used as it has been established to accurately reflect the number of bacteria present in a given infected area. MacConkey agar plates were used as A. baumannii colonies appear purple in this medium and can easily be distinguished from other strains. The experiments were performed with six mice per group. All experiments were performed blindly, and no animal subjects were excluded from the analysis. The skin abscess infection mouse model was approved by the University Laboratory Animal Resources from the University of Pennsylvania (protocol 806763). Statistical significance was determined using one-way analysis of variance (ANOVA) followed by Dunnett’s test in log10-transformed data to mitigate the effect of outliers; P values are presented for each group, with all groups being compared to the untreated control group.
# [4] = A. baumannii ATCC 19606, day 2, replicate 1
# [5] = A. baumannii ATCC 19606, day 2, replicate 2
# [6] = A. baumannii ATCC 19606, day 2, replicate 3
# [7] = A. baumannii ATCC 19606, day 2, replicate 4
# [8] = A. baumannii ATCC 19606, day 2, replicate 5
# [9] = A. baumannii ATCC 19606, day 2, replicate 6
# [10] = A. baumannii ATCC 19606, day 4, replicate 1
# [11] = A. baumannii ATCC 19606, day 4, replicate 2
# [12] = A. baumannii ATCC 19606, day 4, replicate 3
# [13] = A. baumannii ATCC 19606, day 4, replicate 4
# [14] = A. baumannii ATCC 19606, day 4, replicate 5
# [15] = A. baumannii ATCC 19606, day 4, replicate 6
SMILES,"bacterial count, thigh infection (Panel 6d) (A. baumannii ATCC 19606 [1]; [4])","bacterial count, thigh infection (Panel 6d) (A. baumannii ATCC 19606 [1]; [5])","bacterial count, thigh infection (Panel 6d) (A. baumannii ATCC 19606 [1]; [6])","bacterial count, thigh infection (Panel 6d) (A. baumannii ATCC 19606 [1]; [7])","bacterial count, thigh infection (Panel 6d) (A. baumannii ATCC 19606 [1]; [8])","bacterial count, thigh infection (Panel 6d) (A. baumannii ATCC 19606 [1]; [9])","bacterial count, thigh infection (Panel 6d) (A. baumannii ATCC 19606 [1]; [10])","bacterial count, thigh infection (Panel 6d) (A. baumannii ATCC 19606 [1]; [11])","bacterial count, thigh infection (Panel 6d) (A. baumannii ATCC 19606 [1]; [12])","bacterial count, thigh infection (Panel 6d) (A. baumannii ATCC 19606 [1]; [13])","bacterial count, thigh infection (Panel 6d) (A. baumannii ATCC 19606 [1]; [14])","bacterial count, thigh infection (Panel 6d) (A. baumannii ATCC 19606 [1]; [15])",Active or Inactive [2],MIC (lowest MIC value in the antimicrobial activity assays) [2],"bacterial count, skin abscess (Panel 6b) (A. baumannii ATCC 19606 [3]; [4])","bacterial count, skin abscess (Panel 6b) (A. baumannii ATCC 19606 [3]; [5])","bacterial count, skin abscess (Panel 6b) (A. baumannii ATCC 19606 [3]; [6])","bacterial count, skin abscess (Panel 6b) (A. baumannii ATCC 19606 [3]; [7])","bacterial count, skin abscess (Panel 6b) (A. baumannii ATCC 19606 [3]; [8])","bacterial count, skin abscess (Panel 6b) (A. baumannii ATCC 19606 [3]; [9])",also measured
CC[C@H](C)[C@H](N)C(=O)N[C@@H](Cc1ccccc1)C(=O)N[C@@H](CC(C)C)C(=O)N[C@@H](Cc1c[nH]cn1)C(=O)N[C@@H](CC(C)C)C(=O)N[C@@H](CCCCN)C(=O)N[C@H](C(=O)N[C@@H](CC(C)C)C(=O)N[C@@H](CCCCN)C(=O)N[C@H](C(=O)N[C@H](C(=O)N[C@@H](CCCNC(=N)N)C(=O)N[C@@H](CC(C)C)C(=O)N[C@@H](CC(C)C)C(=O)O)[C@@H](C)CC)[C@@H](C)CC)[C@@H](C)CC [Elephasin-2] (H-IFLHLKILKIIRLL-OH; N-terminus and C-terminus assumed),2e+007,4e+007,4e+007,4e+007,8e+007,1e+008,1400000,1000000,4000000,1000000,800000,4000000,Active,1 µM,200000,200000,8000000,4000000,200000,400000,"bacterial count, skin abscess (Panel 6b) (A. baumannii ATCC 19606 [3]; [10]): 40000; bacterial count, skin abscess (Panel 6b) (A. baumannii ATCC 19606 [3]; [11]): 20000; bacterial count, skin abscess (Panel 6b) (A. baumannii ATCC 19606 [3]; [12]): 800000; bacterial count, skin abscess (Panel 6b) (A. baumannii ATCC 19606 [3]; [13]): 800000; bacterial count, skin abscess (Panel 6b) (A. baumannii ATCC 19606 [3]; [14]): 200; bacterial count, skin abscess (Panel 6b) (A. baumannii ATCC 19606 [3]; [15]): 200; Anti-infective activity in skin abscess model, in words (A. baumannii ATCC 19606 [3]): comparable to that of the widely used antibiotic polymyxin B; also recorded: inhibited the proliferation of the infection for up to 4 days after treatment; also recorded: cleared the infection in some of the mice"
CC[C@H](C)[C@H](NC(=O)[C@@H](N)CC(C)C)C(=O)N[C@H](C(=O)N[C@@H](CS)C(=O)N[C@@H](Cc1ccccc1)C(=O)N[C@@H](Cc1ccccc1)C(=O)N[C@@H](CCCNC(=N)N)C(=O)N[C@@H](CCC(N)=O)C(=O)N[C@@H](CC(C)C)C(=O)N[C@@H](CCCCN)C(=O)N[C@@H](Cc1ccccc1)C(=O)N[C@@H](Cc1c[nH]cn1)C(=O)N[C@@H](Cc1ccccc1)C(=O)O)C(C)C [Megalocerin-1] (H-LIVCFFRQLKFHF-OH; N-terminus and C-terminus assumed),1.2e+008,2.0e+007,2.2e+008,2.0e+008,1.2e+008,2.8e+008,6.0e+008,1.0e+009,4.0e+007,6.0e+007,4.0e+007,2.0e+007,Active,8 µM,800000,2000000,2000000,800000,600000,1000000,"bacterial count, skin abscess (Panel 6b) (A. baumannii ATCC 19606 [3]; [10]): 1200000; bacterial count, skin abscess (Panel 6b) (A. baumannii ATCC 19606 [3]; [11]): 1000000; bacterial count, skin abscess (Panel 6b) (A. baumannii ATCC 19606 [3]; [12]): 400000; bacterial count, skin abscess (Panel 6b) (A. baumannii ATCC 19606 [3]; [13]): 400000; bacterial count, skin abscess (Panel 6b) (A. baumannii ATCC 19606 [3]; [14]): 1000000; bacterial count, skin abscess (Panel 6b) (A. baumannii ATCC 19606 [3]; [15]): 400000; Anti-infective activity in skin abscess model, in words (A. baumannii ATCC 19606 [3]): inhibited the proliferation of the infection for up to 4 days after treatment"
